Patent US20220170945A1, “METHOD FOR ASSISTING EVALUATION OF RENAL PATHOLOGICAL CONDITIONS, SYSTEM FOR EVALUATING RENAL PATHOLOGICAL CONDITIONS AND PROGRAM FOR EVALUATING RENAL PATHOLOGICAL CONDITIONS” (Kagami Inc., priority 2019, published 2022)

Settings: human, in vivo
Excerpt: According to the invention, the excretion rate (excretion) is a marker representing the degree of discharge into urine of the amount of target components that have been filtered through the glomeruli by way of the regulating function of the renal tubules (reabsorption and secretion), and it is expressed as a proportion or percentage, or in arbitrary units. The value can be calculated after excluding the effect of reabsorption or concentration of water by correction using a correction factor, and expressed as fractional excretion (FE). Since urine often has a variable concentration rate, the percentages of reabsorption and excretion of D-serine and/or D-asparagine in the kidneys of a subject may be corrected using a “correction factor” that corrects for the urine concentration rate. According to one embodiment of the invention, for example, the subject D-serine excretion rate and/or the subject D-asparagine excretion rate may be corrected by a correction factor derived from the blood and/or urine. In its most simple form, the excretion rate is expressed as a percentage of the amount of target components in urine divided by the glomerular filtration rate for the target components, and the glomerular filtration rate obtained by inulin clearance or the actually measured urinary volume, as well as the amounts of target components in blood and/or in urine, may also be used for the calculation. L-amino acid levels (preferably the levels of L-serine and/or L-asparagine) in urine may also be used as urinary volume correction factors for calculation of the D-amino acid excretion rate. Creatinine clearance, calculated by urine creatinine level or the blood creatinine level, may also be used as a correction factor, expressing the D-serine excretion rate by the following formula, for example. This may then be multiplied by 100 to obtain a percent (%).
The test protocol was approved by the ethics committee of the national research and development agency: National Institutes of Biomedical Innovation, Health and Nutrition, and written informed consent was obtained from all of the test subjects.
Sample preparation from human blood plasma and urine was carried out as follows: First a 20-fold volume of methanol was added to and completely mixed with the blood plasma. […]
The amino acid optical isomers were quantified using the following two-dimensional HPLC system. […] NBD-amino acids were detected by fluorescence detection at 530 nm using excitation light of 470 nm. The NBD-amino acid retention time was identified from standard amino acid optical isomers and quantified by a calibration curve.
The blood urine D-serine level and blood urine D-asparagine level and creatinine level were calculated by substitution into the following formulas.

## NC(=O)C[C@@H](N)C(=O)O [D-asparagine]
  excretion rate after administration of ARB: 35.39%
  excretion rate before administration of ARB: 45.71%

## N[C@H](CO)C(=O)O [D-serine]
  excretion rate after administration of ARB: 25.73%
  excretion rate before administration of ARB: 64.56%
